This is an account of results in article PMC8113725, “Structure–activity relationship of ipglycermide binding to phosphoglycerate mutases” (The Journal of Biological Chemistry, 2021).

The target of test [1] is T1, C. elegans iPGM (Caenorhabditis elegans, UniProt G5EFZ1). Description: PGM enzyme assay (enolase–pyruvate kinase coupled, Kinase-Glo Plus end point) and IC50 determination. The test is classed as biochemical. Background: Kinase-Glo reads ATP consumption through a luciferase reaction.
The target in test [2] is D. immitis iPGM (Dirofilaria immitis, UniProt F4ZE01). Description: biochemical. Particulars: Di iPGM Ave IC50 (M).
For test [3], the target named is T2, B. malayi iPGM (Brugia malayi, UniProt Q4VWF8).
T2 sequence (Q4VWF8 1-515): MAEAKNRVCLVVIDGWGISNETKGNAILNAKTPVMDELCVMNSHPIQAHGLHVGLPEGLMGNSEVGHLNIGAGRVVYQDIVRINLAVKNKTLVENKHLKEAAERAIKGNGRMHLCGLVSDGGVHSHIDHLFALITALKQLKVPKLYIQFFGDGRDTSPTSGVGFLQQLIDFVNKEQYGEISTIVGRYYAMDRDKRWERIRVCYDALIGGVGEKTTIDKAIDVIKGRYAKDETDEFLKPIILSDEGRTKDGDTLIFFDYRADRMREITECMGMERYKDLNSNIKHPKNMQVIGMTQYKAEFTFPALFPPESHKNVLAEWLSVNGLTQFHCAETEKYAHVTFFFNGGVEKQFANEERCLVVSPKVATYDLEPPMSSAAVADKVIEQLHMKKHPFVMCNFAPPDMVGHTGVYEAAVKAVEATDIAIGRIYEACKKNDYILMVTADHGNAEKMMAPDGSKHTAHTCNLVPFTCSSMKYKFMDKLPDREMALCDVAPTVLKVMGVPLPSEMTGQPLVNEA
The experiment in a line: biochemical. The test is classed as binding.

The target in test [4] is T3, E. coli iPGM (Escherichia coli, UniProt P37689). The experiment in a line: biochemical.
Test [5] concerns the target T3, E. coli iPGM. Description: SPR binding kinetics and saturation binding, biotinylated iPGM on Biotin CAPture chip (Biacore S200). The note with it: for koff / kon: LoQ = limit of quantitation.
Test [6] deals with T1, C. elegans iPGM. The note with it: read-out: KD, prior estimate; zone boundary analysis from a cross-titration of C. elegans iPGM enzyme versus Ce-2; cited from earlier work.
In test [7] the target is T1, C. elegans iPGM. Description: SPR binding kinetics and saturation binding, biotinylated iPGM on Biotin CAPture chip (Biacore S200).
Where [8] appears, read: SPR, Req hyperbolic fit where steady state reached, else koff/kon.
[9] abbreviates: SPR, 25 °C, global fit to 1:1 binding model.
Setting [10] is: Supplementary Table 5, SPR, E.c. iPGM.

Where two headings read alike, the source gives them in different places.

Broadly, the IC50 is the concentration needed to halve the response being measured. On to `CC(C)C[C@@H]1NC(=O)[C@H](Cc2ccc(O)cc2)NC(=O)[C@H](CS)NC(=O)[C@H](Cc2ccc(O)cc2)NC(=O)[C@H](CC(=O)O)NC(=O)CNC(=O)[C@@H]2CCCN2C(=O)[C@H](Cc2ccc(O)cc2)NC(=O)[C@H](CC(=O)O)NC(=O)[C@@H](Cc2ccc(O)cc2)NC(=O)CSC[C@@H](C(N)=O)NC(=O)[C@H]([C@@H](C)O)NC(=O)CNC(=O)[C@H](Cc2ccc(O)cc2)NC1=O` [Ce-2 [Y1-->C14]], for which the inhibitory activity result in test [1] is “inactive”. Moreover, the IC50 in test [2] was determined as 6.52e-06 M.

By koff is commonly meant the first-order rate constant of dissociation. As a reminder, the kon is the second-order rate constant of association. For orientation: Kd means the equilibrium constant for the complex coming apart. Turning to `CC(C)C[C@H](NC(=O)[C@H](Cc1ccc(O)cc1)NC(=O)[C@@H]1CSCC(=O)N[C@H](Cc2ccc(O)cc2)C(=O)N[C@@H](CC(=O)O)C(=O)N[C@@H](Cc2ccc(O)cc2)C(=O)N2CCC[C@H]2C(=O)NCC(=O)N[C@@H](CC(=O)O)C(=O)N[C@@H](Cc2ccc(O)cc2)C(=O)N1)C(=O)N[C@@H](Cc1ccc(O)cc1)C(=O)NCC(=O)N[C@H](C(=O)N[C@@H](CS)C(N)=O)[C@@H](C)O` [Ce-2], the koff was 0.000224 s⁻¹ in test [3]; 0.00022 s⁻¹ in test [3] (setting [9]); 0.0048 s⁻¹ in test [5] (SPR, 25 °C, global fit to 1:1 binding model, read-out: koff); 0.00484 s⁻¹ in test [5] (setting [10]); 3.23e-05 s⁻¹ in test [7]; 3.2e-05 s⁻¹ in test [7] (setting [9]). In addition, the kon in test [3] stood at 482000 M⁻¹ s⁻¹; in test [3] (setting [9]), 480000 M⁻¹ s⁻¹; in test [5] (SPR, 25 °C, global fit to 1:1 binding model, read-out: kon) it was 100000 M⁻¹ s⁻¹; in test [5] (setting [10]), 102000 M⁻¹ s⁻¹; in test [7], 1.11e+06 M⁻¹ s⁻¹; in test [7] (setting [9]), 1.1e+06 M⁻¹ s⁻¹. Further, the Kd was 0.5 nM in test [3] (setting [8]); 0.47 nM in test [3] (Supplementary Table 5, SPR, B.m. iPGM, unit inferred); roughly 70 nM in test [5] (setting [8]); 69.2 nM in test [5] (Supplementary Table 5, SPR, E.c. iPGM, unit inferred); 0.07 nM in test [6]; 0.0382 nM in test [7]. For the same molecule, the values for the IC50 in test [4] (IC50), in test [4] ([…]) and in test [2] were greater than 100 nM, 129 nM and 8.27e-10 M, respectively.

Turning to `CC[C@H](C)[C@H](NC(=O)[C@H](Cc1ccc(O)cc1)NC(=O)[C@@H]1CSCC(=O)N[C@H](Cc2ccc(O)cc2)C(=O)N[C@@H](CC(=O)O)C(=O)N[C@@H](Cc2ccc(O)cc2)C(=O)N2CCC[C@H]2C(=O)NCC(=O)N[C@@H](CC(=O)O)C(=O)N[C@@H](Cc2ccc(O)cc2)C(=O)N1)C(=O)N[C@@H](Cc1ccc(O)cc1)C(N)=O` [Ce-2d L10I], the IC50 came out at 25 nM in test [1] (IC50, text, iPGM ortholog not given, C. elegans by contrast with nematode orthologs) and 5.03e-07 M in test [2].
